Numbered stars: 1 amine (or outer) side, 2 acyl side, 3 side chain; on linkers, the order of the positions; unused ones are H or OH. Bridge positions count the residues as written; N and C are the ends. Square brackets hold non-standard residues; d marks the D form. Peptide text beside a SMILES is read from it. I, II: the chains in the order shown. * marks the point of attachment. Actinocin(9to1) = Cc1c2oc3c(C)ccc(C(=O)[*:1])c3nc-2c(C(=O)[*:2])c(N)c1=O; Leu(3R-OH,Nα-propionyl) = CCC(=O)N[C@H](C(=O)*)[C@H](O)C(C)C; X1 = CC(C)[C@@H](O[*:3])[C@H](N[*:1])C(=O)[*:2]; NMeT = CN[C@H](C(=O)O)[C@@H](C)O; dPhLac = O=C(O)[C@H](O)Cc1ccccc1; NMeV = CN[C@H](C(=O)O)C(C)C; NMeA = CN[C@@H](C)C(=O)O; NMeDha = C=C(NC)C(=O)O; Sar = CNCC(=O)O
Assays:
B16 melanoma = assay: In vivo antitumor activity in tumor-bearing mice, B16 melanoma (ip); settings: B16 melanoma ip, BDF₁ mice, Q4D x 3; for T/C: significant if T/C ≧ 125%
Procedure: (§1) In vivo antitumor activity of BU-3983T was examined using tumor-bearing mice. Male BDF₁ mice were intraperitoneally inoculated with 0.5 ml of 10% melanotic melanoma B16 brei, and female CDF₁ mice were intraperitoneally inoculated with 0.4 ml of diluted ascitic fluid containing 10⁶ lymphocytic leukemia P388 cells or 10⁵ lymphoid leukemia L1210 cells. Mitomycin C was used as a reference compound. Test compounds were intraperitoneally administered to the mice by the following treatment schedules: once a day on day 1 only (Q1D x 1), on days 1, 5 and 9 (Q4D x 3) or on days 1 to 9 (Q1D x 9). […]

L1210 leukemia = assay: In vivo antitumor activity in tumor-bearing mice, L1210 leukemia (ip); settings: L1210 leukemia ip, CDF₁ mice, Q1D x 1; for T/C: significant if T/C ≧ 125%
Procedure: as §1

P388 leukemia = assay: In vivo antitumor activity in tumor-bearing mice, P388 leukemia (ip); settings: P388 leukemia ip, CDF₁ mice, Q1D x 1; for T/C: significant if T/C ≧ 125%
Procedure: as §1

Gram-positive organism = settings: Sheehan et al, J. Am. Chem. Soc., 90, 462 (1968); cited from earlier work
Gram-negative bacteria = settings: Sheehan et al, J. Am. Chem. Soc., 90, 462 (1968); cited from earlier work
[1] = tested on: Protein synthesis in B16-F10 melanoma cells; assay: Inhibition of macromolecule synthesis: protein (3H-leucine incorporation); assay type: cell-based, murine; settings: Mus musculus, 4 hours + 60 minutes label, read-out: IC₅₀ Protein
Procedure: (§2) B16-F10 cells (10⁵ cells/ml) were incubated with test materials at 37°C for 4.5 hours (for DNA synthesis) or 4 hours (for RNA and protein syntheses). Labelled precursor, ³H-thymidine, ¹⁴C-uridine or ³H-leucine was added to the culture and further incubated for 30 minutes (for DNA) or 60 minutes (for RNA and protein). After washing with chilled 5% trichloroacetic acid solution, the radioactivity incorporated into the acid-insoluble fraction of the tumor cells was determined by a liquid scintillation counter. Actinomycin D was used as a reference compound.

[2] = tested on: DNA synthesis in B16-F10 melanoma cells; assay: Inhibition of macromolecule synthesis: DNA (3H-thymidine incorporation); assay type: cell-based, murine; settings: Mus musculus, 4.5 hours + 30 minutes label, read-out: IC₅₀ DNA
Procedure: as §2

[3] = tested on: RNA synthesis in B16-F10 melanoma cells; assay: Inhibition of macromolecule synthesis: RNA (14C-uridine incorporation); assay type: cell-based, murine; settings: Mus musculus, 4 hours + 60 minutes label, read-out: IC₅₀ RNA
Procedure: as §2

[4] = Fujioka, et al, J. Org. Chem. 53, 2820 (1988); cited from earlier work
platelet aggregation = settings: Fujioka, et al, J. Org. Chem. 53, 2820 (1988); cited from earlier work
[5] = tested on: Gram-positive microorganisms; settings: Maehr, et al, J. Antibiotics, 39, 17 (1986); cited from earlier work

Compound: CO[C@@]12[C@H](COC(N)=O)C3=C(C(=O)C(C)=C(N)C3=O)N1C[C@@H]1N[C@@H]12 [Mitomycin C, reference compound]
- Body weight change on day 5 (B16 melanoma; 0.25 mg/kg/day ip): +0.8 g
- MST (Median survival time) (B16 melanoma; 0.25 mg/kg/day ip): 15.5 days
- T/C (B16 melanoma; 0.25 mg/kg/day ip): 119%
- Body weight change on day 5 (B16 melanoma; 0.5 mg/kg/day ip): +0.6 g
- MST (Median survival time) (B16 melanoma; 0.5 mg/kg/day ip): 18.0 days
- T/C (B16 melanoma; 0.5 mg/kg/day ip): 138*² %
- Body weight change on day 5 (B16 melanoma; 1 mg/kg/day ip): +0.8 g
- MST (Median survival time) (B16 melanoma; 1 mg/kg/day ip): 22.0 days
- T/C (B16 melanoma; 1 mg/kg/day ip): 169*² %
- Body weight change on day 5 (B16 melanoma; 2 mg/kg/day ip): +0.5 g
- MST (Median survival time) (B16 melanoma; 2 mg/kg/day ip): 27.5 days
- T/C (B16 melanoma; 2 mg/kg/day ip): 212*² %
- Body weight change on day 4 (L1210 leukemia; 0.5 mg/kg/day ip): +1.5 g
- MST (Median survival time) (L1210 leukemia; 0.5 mg/kg/day ip): 10.0 days
- T/C (L1210 leukemia; 0.5 mg/kg/day ip): 125*² %
- Body weight change on day 4 (L1210 leukemia; 1 mg/kg/day ip): +1.5 g
- MST (Median survival time) (L1210 leukemia; 1 mg/kg/day ip): 10.0 days
- T/C (L1210 leukemia; 1 mg/kg/day ip): 125*² %
- Body weight change on day 4 (L1210 leukemia; 2 mg/kg/day ip): +1.0 g
- MST (Median survival time) (L1210 leukemia; 2 mg/kg/day ip): 10.5 days
- T/C (L1210 leukemia; 2 mg/kg/day ip): 131*² %
- Body weight change on day 4 (L1210 leukemia; 4 mg/kg/day ip): +0.5 g
- MST (Median survival time) (L1210 leukemia; 4 mg/kg/day ip): 11.0 days
- T/C (L1210 leukemia; 4 mg/kg/day ip): 138*² %
- Body weight change on day 4 (L1210 leukemia; 8 mg/kg/day ip): -0.3 g
- MST (Median survival time) (L1210 leukemia; 8 mg/kg/day ip): 12.5 days
- T/C (L1210 leukemia; 8 mg/kg/day ip): 156*² %
- Body weight change on day 4 (P388 leukemia; 0.25 mg/kg/day ip): +1.0 g
- MST (Median survival time) (P388 leukemia; 0.25 mg/kg/day ip): 11.5 days
- T/C (P388 leukemia; 0.25 mg/kg/day ip): 115%
- Body weight change on day 4 (P388 leukemia; 0.5 mg/kg/day ip): +1.5 g
- MST (Median survival time) (P388 leukemia; 0.5 mg/kg/day ip): 13.0 days
- T/C (P388 leukemia; 0.5 mg/kg/day ip): 130*² %
- Body weight change on day 4 (P388 leukemia; 1 mg/kg/day ip): +2.0 g
- MST (Median survival time) (P388 leukemia; 1 mg/kg/day ip): 14.0 days
- T/C (P388 leukemia; 1 mg/kg/day ip): 140*² %
- Body weight change on day 4 (P388 leukemia; 2 mg/kg/day ip): +0.5 g
- MST (Median survival time) (P388 leukemia; 2 mg/kg/day ip): 15.5 days
- T/C (P388 leukemia; 2 mg/kg/day ip): 155*² %
- Body weight change on day 4 (P388 leukemia; 4 mg/kg/day ip): -0.8 g
- MST (Median survival time) (P388 leukemia; 4 mg/kg/day ip): 16.5 days
- T/C (P388 leukemia; 4 mg/kg/day ip): 165*² %

Compound: Telomycin
- activity against Gram-positive organism (Gram-positive organism): active
- effect against most Gram-negative bacteria (Gram-negative bacteria): little or no effect

Compound: Cc1c2oc3c(C)ccc(C(=O)N[C@@H]4C(=O)N[C@H](C(C)C)C(=O)N5CCC[C@H]5C(=O)N(C)CC(=O)N(C)[C@@H](C(C)C)C(=O)O[C@@H]4C)c3nc-2c(C(=O)N[C@@H]2C(=O)N[C@H](C(C)C)C(=O)N3CCC[C@H]3C(=O)N(C)CC(=O)N(C)[C@@H](C(C)C)C(=O)O[C@@H]2C)c(N)c1=O [Actinomycin D, reference compound] (I: T[dV]P[Sar][NMeV] / II: T[dV]P[Sar][NMeV]; ester I:1-I:C, II:1-II:C; linker I:N-II:N via Actinocin(9to1))
- IC50 [1]: > 30 µg/mL
- IC50 [2]: 1.3 µg/mL
- IC50 [3]: 0.07 µg/mL

Compound: C=C1C(=O)N[C@@H](C)C(=O)N(C)[C@@H](C)C(=O)N[C@@H]([C@H](OC(=O)[C@@H](NC(=O)CC)[C@H](O)C(C)C)C(C)C)C(=O)N(C)[C@@H]([C@@H](C)OC)C(=O)O[C@H](C(C)C)[C@H](NC(C)=O)C(=O)O[C@H](Cc2ccccc2)C(=O)N1C [FR900359] (Ac-[X1][dPhLac][NMeDha]A[NMeA][X1](Leu(3R-OH,Nα-propionyl))[NMeT](Me); ester 1-C)
- decrease of blood pressure [4]: decrease of blood pressure
- inhibition of platelet aggregation (platelet aggregation): inhibition of platelet aggregation

Compound: C/C=C(\C)C(=O)[C@@H](/C=C(\C)[C@@H]1O[C@@](O)([C@](O)(CC)C(=O)N[C@@H]2C(=O)N3NCCC[C@H]3C(=O)N(O)[C@H](COC)C(=O)N(C)[C@H](C)C(=O)N3NCCC[C@@H]3C(=O)N[C@@H]([C@H](C)O)C(=O)O[C@@H]2C(C)C)CC[C@H]1C)CC [azinothricin]
- activity against Gram-positive microorganisms [5]: primarily active

Source: EP0431323A1, “Antitumor antibiotic BU-3983T” (priority 1989, dated 1991)
